Biological target: GTPase KRas (Homo sapiens, UniProt P01116, G12D)
Test: Displacement of Cy5-labelled tracer from biotinylated GDP-loaded human recombinant KRAS G12D mutant (1 to 169 residues) measured after 60 mins by TR-FRET assay

For `Oc1cc(-c2ncc3c(N4CC5CCC(C4)N5)nc(OCC45CCCN4C(CF)CC5)nc3c2F)c2ccccc2c1` (stereo unspecified), the IC50 was 0.1 nM.

— ChEMBL document CHEMBL4842393, “Targeting KRAS G12D Mutant for the Potential Treatment of Pancreatic Cancer” (ACS Med Chem Lett, 2021)
